Where two headings read alike, the source gives them in different places.
Experiments:
B/Florida/04/2006 = test: Antiviral activity (drug efficacy evaluation by concentration) against B/Florida/04/2006; type: cell-based, B type influenza virus
[1] = test system: A/California/07/2009 (H1N1); test: Antiviral activity (drug efficacy evaluation by concentration) against A/California/07/2009 (H1N1); type: cell-based, A type influenza virus
A/Perth/16/2009 (H3N2) = test: Antiviral activity (drug efficacy evaluation by concentration) against A/Perth/16/2009 (H3N2); type: cell-based, A type influenza virus
MDCK cells = test: Cytotoxicity (CC50) in the influenza infection assay
[2] = read-out: EC50 B/Florida/04/2006, B/Florida/04/2006
[3] = A/California/07/2009 (H1N1), read-out: EC50 A/California/07/2009 (H1N1)
[4] = A/Perth/16/2009 (H3N2), read-out: EC50 A/Perth/16/2009 (H3N2)
[5] = read-out: CC50 A/California/07/2009 (H1N1), cytotoxicity in the A/California/07/2009 (H1N1) assay
[6] = read-out: CC50 A/Perth/16/2009 (H3N2), cytotoxicity in the A/Perth/16/2009 (H3N2) assay
[7] = read-out: CC50 B/Florida/04/2006, cytotoxicity in the B/Florida/04/2006 assay
[8] = Influenza A virus, H1N1, read-out: EC50
[9] = Influenza A virus, H3N2, read-out: EC50
[10] = CC50, third EC50/CC50 column pair (c7), beside the EC50 of c6

Structure (SMILES) | EC50 (B/Florida/04/2006; [2]) | EC50 [1, 3] | EC50 (A/Perth/16/2009 (H3N2); [4]) | CC50 (MDCK cells; [5]) | CC50 (MDCK cells; [6]) | CC50 (MDCK cells; [7]) | EC50 (B/Florida/04/2006) | EC50 [1, 8] | EC50 (A/Perth/16/2009 (H3N2); [9]) | melting point | CC50 (in vitro; CC50, beside the EC50 of c2) | CC50 (in vitro; CC50, beside the EC50 of c4) | CC50 (in vitro; [10])
Cc1nn(Cc2nnc(SCc3ccccc3-c3ccncc3)o2)c(C)c1Br [Compound 15, 2-((4-bromo-3,5-dimethyl-1H-pyrazol-1-yl)methyl)-5-((2-(pyridin-4-yl)benzyl)thio)-1,3,4-oxadiazole] | 8.18 µM | 8.9 µM | 11.6 µM | > 50 µM | > 50 µM | > 50 µM | – | – | – | – | – | – | –
Cc1nn(Cc2nnc(SCc3ccccc3-c3ccncc3)o2)c(C)c1Br [Compound 20, 2-((4-bromo-3,5-dimethyl-1H-pyrazol-1-yl)methyl)-5-((2-(pyridin-4-yl)benzyl)thio)-1,3,4-oxadiazole] | 0.66 µM | 0.7 µM | 0.7 µM | 8.3 µM | 10.2 µM | 10.2 µM | – | – | – | – | – | – | –
Fc1ccccc1/C=C/c1nnc(Cc2cccc(Cl)c2)o1 [Compound 187, 2-(3-chlorobenzyl)-5-(2-fluorostyryl)-1,3,4-oxadiazole] | – | – | – | – | – | – | 1.7 µM | 1.89 µM | 1.51 µM | 117.3 °C | > 50 µM | > 50 µM | > 50 µM
Fc1ccc(/C=C/c2nnc(Cc3cccc(Br)c3)o2)cc1 [Compound 188, 2-(3-bromobenzyl)-5-(4-fluorostyryl)-1,3,4-oxadiazole] | – | – | – | – | – | – | 12.2 µM | 9.58 µM | 11.6 µM | 95.3 °C | > 50 µM | > 50 µM | > 50 µM
Fc1ccc(/C=C/c2nnc(Cc3cccc(Br)c3)o2)cc1F [Compound 191, 2-(3-bromobenzyl)-5-(3,4-difluorostyryl)-1,3,4-oxadiazole] | – | – | – | – | – | – | 13.2 µM | 8.24 µM | 4.99 µM | 112.8 °C | > 50 µM | > 50 µM | > 50 µM
Clc1ccc(/C=C/c2nnc(Cc3cccc(Br)c3)o2)c(Cl)c1 [Compound 192, 2-(3-bromobenzyl)-5-(2,4-dichlorostyryl)-1,3,4-oxadiazole] | – | – | – | – | – | – | 5.49 µM | 4.66 µM | 2.6 µM | 142.4 °C | > 50 µM | > 50 µM | > 50 µM
Fc1ccc(Cl)c(/C=C/c2nnc(Cc3cccc(Br)c3)o2)c1 [Compound 193, 2-(3-bromobenzyl)-5-(2-chloro-5-fluorostyryl)-1,3,4-oxadiazole] | – | – | – | – | – | – | > 50 µM | > 50 µM | > 50 µM | 97.1 °C | > 50 µM | > 50 µM | > 50 µM
Fc1cccc(/C=C/c2nnc(Cc3cccc(Br)c3)o2)c1Cl [Compound 194, 2-(3-bromobenzyl)-5-(2-chloro-3-fluorostyryl)-1,3,4-oxadiazole] | – | – | – | – | – | – | 1.53 µM | 1.31 µM | 1.43 µM | 140.2 °C | 49.9 µM | > 50 µM | > 50 µM
Brc1ccc(Cc2nnc(/C=C/c3cccc4ccccc34)o2)cc1 [Compound 197, 2-(4-bromobenzyl)-5-(2-(naphthalen-1-yl)vinyl)-1,3,4-oxadiazole] | – | – | – | – | – | – | 44.1 µM | 26.9 µM | 46.1 µM | 116 °C | > 50 µM | > 50 µM | > 50 µM
Cc1cc(C(F)(F)F)ccc1/C=C/c1nnc(Cc2cccc(Br)c2)o1 [Compound 198, 2-(3-bromobenzyl)-5-(2-methyl-4-(trifluoromethyl)styryl)-1,3,4-oxadiazole] | – | – | – | – | – | – | 47.9 µM | 35.7 µM | > 50 µM | 116 °C | > 50 µM | > 50 µM | > 50 µM
FC(F)(F)c1ccc(Cl)c(/C=C/c2nnc(Cc3cccc(Br)c3)o2)c1 [Compound 199, 2-(3-bromobenzyl)-5-(2-chloro-5-(trifluoromethyl)styryl)-1,3,4-oxadiazole] | – | – | – | – | – | – | 9.89 µM | 8.55 µM | 6.3 µM | 106.9 °C | > 50 µM | > 50 µM | > 50 µM
Cc1ccc(/C=C/c2nnc(Cc3cccc(Br)c3)o2)c(C)c1 [Compound 200, 2-(3-bromobenzyl)-5-(2,4-dimethylstyryl)-1,3,4-oxadiazole] | – | – | – | – | – | – | 10.2 µM | 11.7 µM | 11.9 µM | 74.2 °C | > 50 µM | > 50 µM | > 50 µM
Oc1cccc(Cc2nnc(/C=C/c3ccc(F)cc3Cl)o2)c1 [Compound 201, (E)-3-((5-(2-chloro-4-fluorostyryl)-1,3,4-oxadiazol-2-yl)methyl)phenol] | – | – | – | – | – | – | 3.7 µM | 3.25 µM | 3.05 µM | 152.7 °C | > 50 µM | > 50 µM | > 50 µM
Oc1ccccc1/C=C/c1nnc(Cc2ccc(Br)cc2)o1 [Compound 209, 2-(2-(5-(4-bromobenzyl)-1,3,4-oxadiazol-2-yl)vinyl)phenol] | – | – | – | – | – | – | > 50 µM | 46.8 µM | 28.6 µM | 168.3 °C | > 50 µM | > 50 µM | > 50 µM
